Active and inactive are the calls of the source. The rule behind the calls is not given here.
Assays:
[1] = test system: K562; assay: Induction of apoptosis in human K562 cells assessed as viable cells at 0.3 micromol/L measured after 48 hrs by Annexin V-FITC/7-AAD staining based flow cytometric analysis (reference value: 92.85 %); type: functional; details: K562, 48 h, dose 0.3 µmol/L, read-out: Activity
[2] = test system: K562; assay: Induction of apoptosis in human K562 cells assessed as viable cells at 0.01 micromol/L measured after 48 hrs by Annexin V-FITC/7-AAD staining based flow cytometric analysis (reference value: 92.85 %); type: functional; details: K562, 48 h, dose 0.01 µmol/L, read-out: Activity
[3] = test system: K562; assay: Induction of apoptosis in human K562 cells assessed as viable cells at 0.1 uM measured after 24 hrs by Annexin V-FITC/7-AAD staining based flow cytometric analysis relative to control; type: functional; details: read-out: Activity
[4] = test system: K562; assay: Induction of apoptosis in human K562 cells assessed as necrotic cells at 1 micromol/L measured after 48 hrs by Annexin V-FITC/7-AAD staining based flow cytometric analysis (reference value: 0.46 %); type: functional; details: dose 1 µmol/L, at 1 µM
[5] = test system: K562; assay: Induction of apoptosis in human K562 cells assessed as early apoptotic cells at 0.03 micromol/L measured after 48 hrs by Annexin V-FITC/7-AAD staining based flow cytometric analysis (reference value: 4.2 %); type: functional; details: dose 0.03 µmol/L, at 0.03 µM
[6] = test system: K562; assay: Induction of apoptosis in human K562 cells assessed as necrotic cells at 0.1 uM measured after 72 hrs by Annexin V-FITC/7-AAD staining based flow cytometric analysis relative to control; type: functional
[7] = test system: K562; assay: Induction of apoptosis in human K562 cells assessed as late apoptotic cells at 0.01 micromol/L measured after 48 hrs by Annexin V-FITC/7-AAD staining based flow cytometric analysis (reference value: 2.49 %); type: functional; details: dose 0.01 µmol/L, at 0.01 µM
[8] = test system: K562; assay: Antiproliferative activity against human K562 cells assessed as cell growth inhibition measured after 48 hrs by MTT assay; type: functional, cell-based; details: K562, 48 h
[9] = test system: K562; assay: Induction of apoptosis in human K562 cells assessed as viable cells at 0.1 micromol/L measured after 48 hrs by Annexin V-FITC/7-AAD staining based flow cytometric analysis (reference value: 92.85 %); type: functional; details: K562, 48 h, dose 0.1 µmol/L, read-out: Activity
[10] = test system: K562; assay: Induction of apoptosis in human K562 cells assessed as early apoptotic cells at 1 micromol/L measured after 48 hrs by Annexin V-FITC/7-AAD staining based flow cytometric analysis (reference value: 4.2 %); type: functional; details: dose 1 µmol/L, at 1 µM
[11] = test system: K562; assay: Induction of apoptosis in human K562 cells assessed as early apoptotic cells at 0.1 uM measured after 24 hrs by Annexin V-FITC/7-AAD staining based flow cytometric analysis relative to control; type: functional
[12] = test system: K562; assay: Induction of apoptosis in human K562 cells at 30 nM measured after 48 hrs by Annexin V-FITC/7-AAD staining based flow cytometric analysis; type: functional, cell-based
[13] = test system: K562; assay: Induction of apoptosis in human K562 cells assessed as late apoptotic cells at 0.1 uM measured after 12 hrs by Annexin V-FITC/7-AAD staining based flow cytometric analysis relative to control; type: functional
[14] = test system: K562; assay: Induction of apoptosis in human K562 cells assessed as late apoptotic cells at 0.1 uM measured after 24 hrs by Annexin V-FITC/7-AAD staining based flow cytometric analysis relative to control; type: functional
[15] = target: Tubulin beta (Homo sapiens) (UniProt P68371+Q9H4B7+Q13509+P04350+Q3ZCM7+P07437+Q13885+Q9BVA1+Q9BUF5+A6NNZ2); assay: Inhibition of N,N'-Ethylenebis(iodoacetamide) binding to beta-tubulin colchicine binding site in human K562 cells assessed as reduction in EBI/beta-tubulin adduct formation at 1 to 10 uM preincubated for 2.5 hrs followed by EBI addition and measured after 1.5 hrs by Western blot analysis; type: cell-based; details: dose 1-10 µM, time 4.0 hrs
[16] = test system: K562; assay: Induction of apoptosis in human K562 cells assessed as late apoptotic cells at 0.1 micromol/L measured after 48 hrs by Annexin V-FITC/7-AAD staining based flow cytometric analysis (reference value: 2.49 %); type: functional; details: dose 0.1 µmol/L, at 0.1 µM
[17] = test system: K562; assay: Induction of apoptosis in human K562 cells assessed as necrotic cells at 0.1 uM measured after 12 hrs by Annexin V-FITC/7-AAD staining based flow cytometric analysis relative to control; type: functional
[18] = Inhibition of porcine brain tubulin polymerization assessed as reduction in tubulin assembly at 37 degreeC measured after 40 mins in presence of GTP by turbidimetric analysis; design: species or system Sus scrofa
[19] = test system: K562; assay: Induction of apoptosis in human K562 cells assessed as viable cells at 0.1 uM measured after 12 hrs by Annexin V-FITC/7-AAD staining based flow cytometric analysis relative to control; type: functional; details: read-out: Activity
[20] = test system: K562; assay: Induction of apoptosis in human K562 cells assessed as early apoptotic cells at 0.1 uM measured after 6 hrs by Annexin V-FITC/7-AAD staining based flow cytometric analysis relative to control; type: functional
[21] = test system: K562; assay: Induction of apoptosis in human K562 cells assessed as viable cells at 0.03 micromol/L measured after 48 hrs by Annexin V-FITC/7-AAD staining based flow cytometric analysis (reference value: 92.85 %); type: functional; details: K562, 48 h, dose 0.03 µmol/L, read-out: Activity
[22] = test system: K562; assay: Induction of apoptosis in human K562 cells assessed as viable cells at 1 micromol/L measured after 48 hrs by Annexin V-FITC/7-AAD staining based flow cytometric analysis (reference value: 92.85 %); type: functional; details: K562, 48 h, dose 1 µmol/L, read-out: Activity
[23] = test system: K562; assay: Induction of apoptosis in human K562 cells assessed as early apoptotic cells at 0.01 micromol/L measured after 48 hrs by Annexin V-FITC/7-AAD staining based flow cytometric analysis (reference value: 4.2 %); type: functional; details: dose 0.01 µmol/L, at 0.01 µM
[24] = test system: K562; assay: Induction of apoptosis in human K562 cells assessed as necrotic cells at 0.3 micromol/L measured after 48 hrs by Annexin V-FITC/7-AAD staining based flow cytometric analysis (reference value: 0.46 %); type: functional; details: dose 0.3 µmol/L, at 0.3 µM
[25] = test system: K562; assay: Induction of apoptosis in human K562 cells assessed as necrotic cells at 0.1 micromol/L measured after 48 hrs by Annexin V-FITC/7-AAD staining based flow cytometric analysis (reference value: 0.46 %); type: functional; details: dose 0.1 µmol/L, at 0.1 µM
[26] = test system: K562; assay: Induction of apoptosis in human K562 cells assessed as late apoptotic cells at 0.03 micromol/L measured after 48 hrs by Annexin V-FITC/7-AAD staining based flow cytometric analysis (reference value: 2.49 %); type: functional; details: dose 0.03 µmol/L, at 0.03 µM
[27] = test system: K562; assay: Induction of apoptosis in human K562 cells assessed as early apoptotic cells at 0.1 uM measured after 72 hrs by Annexin V-FITC/7-AAD staining based flow cytometric analysis relative to control; type: functional
[28] = test system: K562; assay: Induction of apoptosis in human K562 cells measured after 48 hrs by Annexin V-FITC/7-AAD staining based flow cytometric analysis; type: functional, cell-based; details: dose 0.01-3 µmol/L
[29] = test system: K562; assay: Induction of apoptosis in human K562 cells assessed as early apoptotic cells at 0.1 micromol/L measured after 48 hrs by Annexin V-FITC/7-AAD staining based flow cytometric analysis (reference value: 4.2 %); type: functional; details: dose 0.1 µmol/L, at 0.1 µM

Question: Which results are given for `COc1cc(OC)cc(N2CCN(C(=O)n3c4ccccc4c(=O)c4ccccc43)CC2)c1`?
Answer: viability at 0.3 µM [1]: 42.6%; viability at 0.01 µM [2]: 88.6%; viability at 0.1 µM [3]: 66.3%; Activity [4]: 0.35%; Activity [5]: 21.52%; Activity [6]: 4.54%; Activity [7]: 4.85%; IC50 [8]: 13 nM; viability at 0.1 µM [9]: 41.5%; Activity [10]: 27.4%; Activity [11]: 26.44%; Activity [12]: Active; Activity [13]: 2.86%; Activity [14]: 7.02%; inhibition [15]: Active; Activity [16]: 22.22%; Activity [17]: 0.29%; IC50 [18]: 350 nM; viability at 0.1 µM [19]: 87.8%; Activity [20]: 4.84%; viability at 0.03 µM [21]: 52.2%; viability at 1 µM [22]: 41%; Activity [23]: 6.24%; Activity [24]: 0.35%; Activity [25]: 0.33%; Activity [26]: 25.72%; Activity [27]: 11.57%; Activity [28]: Dose-dependent effect; Activity [29]: 26.08%

— ChEMBL document CHEMBL4680289, “10-(4-Phenylpiperazine-1-carbonyl)acridin-9(10H)-ones and related compounds: Synthesis, antiproliferative activity and inhibition of tubulin polymerization” (Bioorg Med Chem Lett, 2021)
